The values below come from patent US7247612B2, “Methods of treating an inflammatory disease with a JJT-1 polypeptide” (Japan Tobacco Inc., priority 1997, dated 2007).

The assay has as its system rat lymphoblast cells activated with concanavalin A. Description: Aggregation of concanavalin A-activated rat lymphoblast cells. Format: cell-based. As to conditions: ConA-activated rat lymphoblasts. Here is the method: The hybridomas prepared in Example 1 were screened by analyzing the effect of the antibodies produced in the culture supernatant of the hybridomas on FTL435 cells, which were used as the immunogen. FTL435 cells (5×10^6 cells/ml, 0.1 ml) were seeded into each well of a 96-well microtiter plate and cultivated at 37° C. for an hour in the presence of culture supernatant of each hybridoma (10 μg/ml each).
In order to determine whether the aggregation of FTL435 cells induced by “JTT-1 antibody” stimulation was caused by the cell adhesion between intercellular adhesion molecule-1 (ICAM-1) and lymphocyte function-associated antigen-1 (LFA-1), which is a representative known pathway of cell adhesion, FTL435 cells were cultivated at 37° C. for an hour in the presence of anti-rat ICAM-1 antibody 1A29 (10 μg/ml; IgG1) or anti-rat LFA-1 antibody (10 μg/ml; IgG2a) together with “JTT-1 antibody.”
In order to further analyze the cell agglutination ability of “JTT-1 antibody,” the ability to agglutinate rat lymphoblast cells activated with concanavalin A stimulation was analyzed in the same manner as mentioned above.

Turning to `CCCCCCCCCCCCCC(=O)O[C@@H]1[C@@H](C)[C@@]2(O)[C@@H](C=C(CO)C[C@]3(O)C(=O)C(C)=C[C@@H]23)[C@@H]2C(C)(C)[C@]12OC(C)=O` [phorbol myristate acetate], the “Aggregation of activated lymphoblast cells” value is reported as “no aggregation through cell adhesion unless they receive the stimulation”.
